The assay concerns CEM cells HIV-1 protection, formazan growth assay. Nature of the assay: NCI AIDS Antiviral Assay. The conditions noted are these: for IC50: measured here: growth of uninfected CEM cells. Summed up: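 Protection of CEM cells against HIV-1 measured as cell growth via soluble formazan read-out, with five concentrations tested on both infected and uninfected cells; failure to protect may reflect toxicity.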

SMILES strings stand for the structures. Activity calls are given as the source filed them.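 Rule for the calls: active = compounds giving half or more protection of infected cells from virus-caused growth loss, again on retest; inactive = the rest.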

In the case of `O[C@H]1[C@H](O)[C@@H](Cn2nnc(-c3ccccc3)c2-c2ccccc2)OCO[C@@H]1Cn1nnc(-c2ccccc2)c1-c1ccccc1`, the EC50 (commonly the concentration needed to bring the measured effect to its halfway point) is above 200 µM and the half-inhibitory concentration (IC50) – broadly, the concentration at which inhibition is half-maximal – was 9.55 µM.
Take `CN(C)CCCSc1c2ccccc2nc2cc(NCC(=O)Nc3ccccc3-c3ccccc3NC(=O)CNc3ccc4c(SCCCN(C)C)c5ccccc5nc4c3)ccc12`: the EC50 was above 123 µM and the IC50 came out at 58.9 µM.
Consider `COc1cc(C)cc2c1c(=O)c1ccccc1n2C`, for which the EC50 was above 200 µM and the IC50 turned out to be 38.9 µM.
On the same counts, the results for `CC(CCC#CC(=O)O)OC1CCCCO1` (configuration not stated) are above 200 µM and above 200 µM.
For `C1CN(/N=N/N2CCOCC2)CCO1`, the EC50 is above 200 µM and the IC50 is above 200 µM.
Consider `COC(=O)c1ccc(C)cc1C1CN=NC12Cc1cc(C)ccc1C2=O` (configuration not stated), for which the EC50 is above 200 µM and the IC50 worked out at 9.77 µM.
On the same counts, the results for `CCCCCCc1ccc(O)cc1O` are above 200 µM and 74.1 µM.
With `CCC1=CC2CC(C(=O)OC)C1(N(C)C)C2=O` (configuration not stated), the outcome was inactive.
For `COc1cc(NC=O)c2c(c1)SCC(=O)N2`, the EC50 was above 200 µM and the IC50 is 135 µM.
As for `CCn1cc(C(=O)O)c(=O)c2cc(F)c(-n3cccc3)cc21`, the outcome was inactive.
For the compound `COC(=O)CNC(=O)CNC(=O)CSc1nnc(COc2ccc(Cl)cc2)n1-c1ccccc1`, the EC50 was above 200 µM and the 50% inhibitory concentration (IC50) is 30.9 µM.
In the case of `CCOC(=O)CC(=O)C(=O)NNC1=NCCN1`, the EC50 was above 200 µM and the IC50 was above 200 µM.
Regarding `C=C1C[C@@H]2O[C@H]3[C@H]4[C@@H](C[C@@H](C)[C@@H](OC(C)=O)[C@H]42)[C@@H](C)CO[C@@]3(C)[C@H](OC(=O)CCCCCCC)CC1=O`, the EC50 is above 200 µM and the IC50 was 10 µM.
As to `N#CC(C#N)=Cc1cccc(Oc2ccccc2)c1`, the EC50 is above 29.5 µM and the IC50 is above 29.5 µM.
On to `CCN(CC)CCOC(=O)c1[nH]c(=O)[nH]c(=O)c1N`, for which the EC50 is above 200 µM and the half-inhibitory concentration (IC50) was above 200 µM.
Turning to `O=S(=O)(O)CN(CS(=O)(=O)O)c1nc(N(CS(=O)(=O)O)CS(=O)(=O)O)nc(N(CS(=O)(=O)O)CS(=O)(=O)O)n1`, the EC50 is above 100 µM and the 50% inhibitory concentration (IC50) stood at 15.5 µM.
With `C=C1CN(S(=O)(=O)c2ccc(C)cc2)CCCN(CCC)CCCN(S(=O)(=O)c2ccc(C)cc2)C1`, the EC50 was above 200 µM and the 50% inhibitory concentration (IC50) came to 2.95 µM.
Taken in the same sequence, the figures for `CCCCNCCCC.[C-]#[O+].[C-]#[O+].[C-]#[O+].[C-]#[O+].[C-]#[O+].[Cr]` were above 200 µM and 56.2 µM.
Regarding `COC(=O)Nc1nc2cc(OC)c(OC)cc2c(=O)[nH]1`, the EC50 is above 200 µM and the half-maximal inhibitory concentration (IC50) is 8.71 µM.
On to `NS(=O)(=O)c1ccc(Nc2c3ccccc3nc3c(C(=O)N4CCN(CCO)CC4)ccc(Cl)c23)cc1`, for which the EC50 is above 49 µM and the IC50 was above 49 µM.
On to `CCOC(=O)c1cc2c(nc1N)/C(=C/c1ccccc1)CCCC2`, for which the EC50 was above 200 µM and the IC50 worked out at 10.7 µM.
`N#CC1CC12c1ccccc1C(=O)c1ccccc12` (configuration not stated): the EC50 is 135 µM and the IC50 came to 145 µM.
Take `COc1cccc(/C=N/NC(=O)CN(C)C)c1O`: the EC50 was above 200 µM and the IC50 came out at 51.3 µM.
`O=C(Nc1cc2c(oc1=O)CCCCCC2)c1ccccc1`: the EC50 was above 200 µM and the IC50 was above 200 µM.
`CC1(C)CCC(Sc2ccccc2)O1` (configuration not stated): the result was inactive.
As for `CC1(C)O[C@@H]2[C@@H]3OC(=O)C[C@@H]3[C@@H](COCc3ccccc3)[C@@H]2O1`, the EC50 was above 200 µM and the concentration for half-maximal inhibition (IC50) is above 200 µM.
`CC1(C)COC(c2ccccc2Cl)N1` (configuration not stated): the result was inactive.
With `c1ccc2c(C3NCCc4[nH]cnc43)cccc2c1` (configuration not stated), the EC50 is above 525 µM and the half-maximal inhibitory concentration (IC50) is above 525 µM.
`O=C1Nc2ccccc2C12OCCS2` (configuration not stated): the result was inactive.
On to `CSc1n[n+]2c(s1)SCCC2`, for which the EC50 is above 759 µM and the half-inhibitory concentration (IC50) came out at 58.9 µM.
As for `CCC(=O)C12OC3OC(C)(C)OC3C1OC(C)(C)O2` (configuration not stated), the result was inactive.
With `CN1c2ccccc2NC(CC(=O)O)C2CC=CN21` (configuration not stated), the EC50 was above 955 µM and the IC50 is 631 µM.
For the compound `COC(=O)C(Cl)=C1CC1`, the EC50 is above 1700 µM and the 50% inhibitory concentration (IC50) amounted to 93.3 µM.
As for `CC1=NN(C(=O)CC(=O)Nc2ccc(C)cc2)C(=O)C1N=Nc1ccc(S(=O)(=O)c2ccc(N=NC3C(=O)N(C(=O)CC(=O)Nc4ccc(C)cc4)N=C3C)cc2)cc1` (configuration not stated), the EC50 was above 50.1 µM and the IC50 was above 50.1 µM.
As for `CC(C)=C1C2C(C13C(=O)OC(C)(C)OC3=O)C2(C)C` (configuration not stated), the EC50 is above 490 µM and the IC50 was above 490 µM.
Turning to `O=C1/C(=C/c2ccccc2)CCCC1CN1CCCCC1` (configuration not stated), the EC50 was above 200 µM and the half-maximal inhibitory concentration (IC50) was found to be 0.676 µM.
As for `Cc1cc2nc(N)n[n+]([O-])c2cc1C`, the EC50 is above 200 µM and the IC50 is above 200 µM.
For `COc1cc2nc(CCc3nc4cc(OC)c(OC)cc4[nH]3)[nH]c2cc1OC`, the EC50 was above 17 µM and the IC50 is 12.3 µM.
Taken in the same sequence, the figures for `N#CC1C(=O)SC2c3ccccc3C(=O)c3ccccc3C12` (configuration not stated) were above 200 µM and 132 µM.
Taken in the same sequence, the figures for `Nc1nc(Cl)c(N)c(NCC2(CO)CC(Cc3ccccc3)C2)n1` (configuration not stated) were above 200 µM and 19.5 µM.
With `CCOC(=O)c1nc2c(OC)nn(O)cc-2c1Br`, the EC50 is above 794 µM and the half-inhibitory concentration (IC50) is above 794 µM.
`COc1ccc(NC(=O)/C(=C/c2ccccc2)C(C)=O)cc1`: the EC50 is above 123 µM and the half-inhibitory concentration (IC50) was 18.6 µM.
Consider `N#CCCC/C(=N\O)C(=O)OCc1ccccc1`, for which the EC50 is above 200 µM and the concentration for half-maximal inhibition (IC50) was above 200 µM.
On to `Cc1ccc(Nc2ncnc3sc(SCc4ccccc4)nc23)cc1`, for which the outcome was inactive.
For the compound `CCCCCCCCCCCCCCCCCc1nnc(N)o1`, the outcome was inactive.
In the case of `CCC1(O)C(=O)OCc2c1cc1n(c2=O)Cc2cc3cc(N)ccc3nc2-1` (configuration not stated), the EC50 is above 0.1 µM and the IC50 stood at 0.0794 µM.
Taken in the same sequence, the figures for `COc1ccc(/C(O)=C/c2nc3ccccc3n2C)cc1` were above 178 µM and 74.1 µM.
Turning to `COc1ccc(OC)c(N(CN2C(=O)CCC2C(=O)O)C(C)=O)c1` (configuration not stated), the EC50 was above 200 µM and the IC50 was above 200 µM.
Take `COC(=O)/C(=N/O)C(C(=O)OC)C(=O)C(=O)Nc1c(Cl)cc(C)cc1S(=O)(=O)O` (configuration not stated): the EC50 was above 550 µM and the IC50 was above 550 µM.
For `CSc1n[nH]c2n[nH]c(C)c12`, the EC50 was above 200 µM and the IC50 came out at 105 µM.
On to `O=C(O)C1(Cc2ccc3c(c2)CCC3)Cc2cc3c(cc2C1)CCC3`, for which the EC50 is above 200 µM and the 50% inhibitory concentration (IC50) stood at 35.5 µM.
As for `CC(=O)Nc1ccc(S(=O)(=O)NN=C2CCCC2)cc1`, the EC50 is above 851 µM and the half-maximal inhibitory concentration (IC50) was determined as 708 µM.
`O=C1NC2(C=Cc3c(ccc4ccccc34)O2)Oc2ccccc21` (configuration not stated): the EC50 was above 11.5 µM and the IC50 was above 11.5 µM.
Take `Cc1cc2oc(=O)[nH]c(=S)c2c(C)c1C`: the EC50 is above 17 µM and the IC50 is above 17 µM.
On to `Cc1ccc(S(=O)(=O)N(CC(=O)O)c2c[nH]c(C(=O)O)c2)cc1`, for which the EC50 was above 200 µM and the IC50 is above 200 µM.
As for `O=c1ccc2cc3ccc4cccc5ccc(c2o1)c3c45`, the outcome was inactive.
`CC/C(CC(=O)CCC(=O)Nc1ccc(C)c(C)c1)=N\NC(=O)c1cc2ccccc2cc1O`: the EC50 was above 15.8 µM and the IC50 came out at 10 µM.
With `CC(=O)[O-].O=S(=O)(Nc1ncccn1)c1ccc(N=Cc2ccccc2O)cc1.O=S(=O)(Nc1ncccn1)c1ccc(N=Cc2ccccc2O)cc1.[Co+2]`, the EC50 is above 200 µM and the IC50 amounted to 39.8 µM.
With `Nc1nn2cc3c(nc2c1N=Nc1ccc(Cl)cc1)CCCC3`, the outcome was inactive.
The same measure, in the same setting: under `[CH3][Sn]([CH3])([CH3])[c]1cccc2ccccc12` stands “inactive”.
For `COC(=O)c1cc(C)ccc1C1CN=NC12Cc1c(C)cc(C)cc1C2=O` (configuration not stated), the EC50 was above 200 µM and the IC50 came to 29.5 µM.
Consider `COc1ccc([C@]23CCN(S(=O)(=O)c4ccc(C)cc4)[C@H]2[C@H](CO)C2(CC3)OCC(C)(C)CO2)cc1OC`, for which the EC50 was above 100 µM and the IC50 turned out to be 87.1 µM.
Regarding `O=C1[O][Bi]23[O]C(=O)C([O]2)C1[O]3`, the EC50 is above 36.3 µM and the IC50 is above 36.3 µM.
On to `CC1(C)C(=O)CCC(=O)C(C)(C)C2=CC=C(O2)C(C)(C)C(=O)CCC(=O)C(C)(C)C2=CC=C1O2`, for which the result was inactive.
Take `CN1CCC2CCCCN2CC1=O` (configuration not stated): the EC50 was above 1150 µM and the half-inhibitory concentration (IC50) is above 1150 µM.
With `Fc1ccc(C2NC(c3ccc(Cl)cc3)c3cccn3-c3sccc32)cc1` (configuration not stated), the EC50 is above 100 µM and the IC50 was determined as 79.4 µM.
As to `CCC(=O)N1C(=O)C(C)C23c4cccc([N+](=O)[O-])c4C(=O)N2CCCN13` (configuration not stated), the EC50 was above 692 µM and the IC50 is above 692 µM.
Turning to `CS/C(c1ccccc1)=[N+](/C)[O-]`, the EC50 is above 813 µM and the IC50 was 589 µM.
On to `Cc1ccc2c(c1)sc1nnc(Cl)n12`, for which the EC50 was above 200 µM and the IC50 is above 200 µM.
Consider `COc1cc2c(cc1OC)C[N+]1(C)CCc3cc(OC)c(OC)cc3C1C2` (configuration not stated), for which the EC50 was above 501 µM and the half-maximal inhibitory concentration (IC50) was above 501 µM.
Take `N#C/C(=C/c1ccsc1)C(=O)c1ccccc1`: the EC50 is above 110 µM and the half-maximal inhibitory concentration (IC50) was above 110 µM.
Consider `Cc1cc(C)n(-c2c(O)ccc(O)c2-n2nc(C)cc2C)n1`, for which the EC50 is above 229 µM and the half-inhibitory concentration (IC50) turned out to be 120 µM.
On to `CN(C)c1ccc(/C=C2\CCc3ccccc3C2=O)cc1Br`, for which the EC50 is above 10.7 µM and the IC50 was above 10.7 µM.
Consider `O=c1c(-c2ccc3c(c2)OCO3)coc2c3c(ccc12)OCO3`, for which the result was inactive.
Regarding `O=c1n(-c2ccccc2)c(=O)n2n1Cc1cc3ccccc3cc1-2`, the EC50 was above 79.4 µM and the IC50 is above 79.4 µM.

Source of the values: PubChem BioAssay AID179 (DTP/NCI, 2004).
